Where a name gives a salt, the structure may show the parent alone.

The target of the assay is T1, SGK1 (Homo sapiens, UniProt O00141).
T1 sequence (O00141 1-431): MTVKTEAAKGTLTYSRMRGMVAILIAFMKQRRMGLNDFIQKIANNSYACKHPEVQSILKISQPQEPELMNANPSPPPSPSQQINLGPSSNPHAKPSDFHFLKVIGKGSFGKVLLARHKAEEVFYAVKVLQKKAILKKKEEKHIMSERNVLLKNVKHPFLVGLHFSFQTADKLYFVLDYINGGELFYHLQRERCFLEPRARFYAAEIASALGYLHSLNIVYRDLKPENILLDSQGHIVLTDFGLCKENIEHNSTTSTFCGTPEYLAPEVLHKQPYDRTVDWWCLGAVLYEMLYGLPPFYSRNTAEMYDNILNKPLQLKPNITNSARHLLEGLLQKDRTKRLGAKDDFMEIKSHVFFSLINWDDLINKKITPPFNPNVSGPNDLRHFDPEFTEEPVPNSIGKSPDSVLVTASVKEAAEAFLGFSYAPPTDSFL
Put plainly: SGK1 inhibition Assay B (Echo mass spectrometry of phosphorylated peptide product). The assay is classed as biochemical. To be noted: 60 min at room temperature.
Method: 20 μl of 2 nM SGK1 were added in 20 mM Hepes+10 mM MgCl2+0015% Brij-35+4 mM DTT+0.05 mg/ml BSA and the reaction incubated for 60 min at room temperature. The enzymatic reaction was quenched by addition 10 μl of 1% Formic Acid+150 nM Internal Standard: FITC-(Ahx)KKRNRR(pS)VA^—OH (final concentration). The plates are spun down at 3700 RPM for 10 minutes to remove all precipitate. Samples were loaded on to the Sciex Echo Mass Spec attached to a Sciex 6500 equipped with ESI and was used to analyze the phosphorylated peptide product. MRM transition of product and internal standard were monitored at m/z 755 to 937.5 and m/z 757.7 to 941.3 respectively. Peak area of analyte was normalized with internal standard.
Dose response curves were generated to determine the concentration required for inhibiting 50% of the enzyme activity. Compounds were dissolved at 10 mM in dimethylsulfoxide (DMSO) and evaluated at eleven concentrations.
As a reminder, the IC50 is the concentration that gives 50% inhibition. Lower therefore signals higher potency. With `COc1nccc(-c2cc(N3CCC[C@@H](NC(=O)c4sc(C)nc4O[C@H]4CC[C@@H](N5CCCC5)CC4)C3)c3c(N)ncnn23)n1` [Example 1029, N—((R)-1-(4-amino-7-(2-methoxypyrimidin-4-yl)pyrrolo[2,1-f][1,2,4]triazin-5-yl)piperidin-3-yl)-2-methyl-4-(((1s,4S)-4-(pyrrolidin-1-yl)cyclohexyl)oxy)thiazole-S-carboxamidemorpholinothiophene-2-carboxamide], the midpoint of inhibition, the IC50, lay at 0.1 nM.
As for `Cc1nc(OC2CCC(N3CCC3)CC2)c(C(=O)N[C@@H]2CCCN(c3cc(-c4csc(C(N)=O)n4)n4ncnc(N)c34)C2)s1` (stereo partly drawn) [Example 1050, (R)-4-(4-amino-5-(3-(4-((4-(azetidin-1-yl)cyclohexyl)oxy)-2-methylthiazole-5-carboxamido)piperidin-1-yl)pyrrolo[2,1-f][1,2,4]triazin-7-yl)thiazole-2-carboxamide], the figure is 0.6 nM; as for `CC(C)N1CC2(CN(c3cccc(C(=O)N[C@@H]4CCCN(c5cc(-c6ccc(C#N)nc6)n6ncnc(N)c56)C4)n3)C2)C1` [Example 817, (R)-N-(1-(4-amino-7-(6-cyanopyridin-3-yl)pyrrolo[2,1-f][1,2,4]triazin-5-yl)piperidin-3-yl)-6-(6-isopropyl-2,6-diazaspiro[3.3]heptan-2-yl)picolinamide], 14 nM; as for `Cc1nc(O[C@H]2CC[C@@H](NC3CCOCC3)CC2)c(C(=O)N[C@@H]2CCCN(c3cc(C4=CC(=O)OC4)n4ncnc(N)c34)C2)s1` [Example 1002, N—((R)-1-(4-amino-7-(5-oxo-2,5-dihydrofuran-3-yl)pyrrolo[2,1-f][1,2,4]triazin-5-yl)piperidin-3-yl)-2-methyl-4-(((1S,4S)-4-((tetrahydro-2H-pyran-4-yl)amino)cyclohexyl)oxy)thiazole-5-carboxamide], 0.3 nM.
As for `CN1CC2CCC1CC2Oc1cc(Cl)sc1C(=O)N[C@@H]1CCCN(c2cc(-c3ccc(=O)n(CC(F)F)c3)n3ncnc(N)c23)C1` (stereo partly drawn) [Example 991, N—((R)-1-(4-amino-7-(1-(2,2-difluoroethyl)-6-oxo-1,6-dihydropyridin-3-yl)pyrrolo[2,1-f][1,2,4]triazin-5-yl)piperidin-3-yl)-5-chloro-3-((2-methyl-2-azabicyclo[2.2.2]octan-5-yl)oxy)thiophene-2-carboxamide], the figure is 0.8 nM; as for `Cc1cc(-c2cc(N3CCC[C@@H](NC(=O)c4sc(C)nc4OC4CCC(N5CCC5)CC4)C3)c3c(N)ncnn23)cnn1` (stereo partly drawn) [Example 1047, N—((R)-1-(4-amino-7-(6-methylpyridazin-4-yl)pyrrolo[2,1-f][1,2,4]triazin-5-yl)piperidin-3-yl)-4-((4-(azetidin-1-yl)cyclohexyl)oxy)-2-methylthiazole-5-carboxamide], 9.9 nM; as for `CN1CCN(c2cccc(C(=O)N[C@@H]3CCCN(c4cc(-c5ccc(F)c(F)c5)n5ncnc(N)c45)C3)n2)CC1` [Example 811, (R)-N-(1-(4-amino-7-(3,4-difluorophenyl)pyrrolo[2,1-f][1,2,4]triazin-5-yl)piperidin-3-yl)-6-(4-methylpiperazin-1-yl)picolinamide], 45 nM.
The same measure for `COc1nccc(-c2cc(N3CCC[C@@H](NC(=O)c4sc(C)nc4O[C@H]4CC[C@@H](N(C)C)CC4)C3)c3c(N)ncnn23)n1` [Example 1028, N—((R)-1-(4-amino-7-(2-methoxypyrimidin-4-yl)pyrrolo[2,1-f][1,2,4]triazin-5-yl)piperidin-3-yl)-4-(((1S,4S)-4-(dimethylamino)cyclohexyl)oxy)-2-methylthiazole-5-carboxamide]: 1.7 nM; for `Cc1nc(OC2CCC(NC(C)(C)C)CC2)c(C(=O)N[C@@H]2CCCN(c3cc(-c4ccc(C(N)=O)c(F)n4)n4ncnc(N)c34)C2)s1` (stereo partly drawn) [Example 1056, (R)—N-(1-(4-amino-7-(5-carbamoyl-6-fluoropyridin-2-yl)pyrrolo[2,1-f][1,2,4]triazin-5-yl)piperidin-3-yl)-4-((4-(tert-butylamino)cyclohexyl)oxy)-2-methylthiazole-5-carboxamide]: 0.7 nM; for `CN1CCN(c2cccc(C(=O)N[C@@H]3CCCN(c4cc(-c5ccc6[nH]ncc6c5)n5ncnc(N)c45)C3)n2)CC1` [Example 806, (R)-N-(1-(4-amino-7-(1H-indazol-5-yl)pyrrolo[2,1-f][1,2,4]triazin-5-yl)piperidin-3-yl)-6-(4-methylpiperazin-1-yl)picolinamide]: 134 nM.
`COC[C@@H](C)N[C@H]1CC[C@@H](Oc2nc(C)sc2C(=O)N[C@@H]2CCCN(c3cc(C4=C(C)C(=O)OC4)n4ncnc(N)c34)C2)CC1` [Example 1007, N-((R)-1-(4-amino-7-(4-methyl-5-oxo-2.5-dihydrofuran-3-yl)pyrrolo[2,1-f][1,2,4]triazin-5-y1)piperidin-3-y1)-4-((4-(((R)-1-methoxypropan-2-yl)amino)cyclohexyl)oxy)-2~methylthiazole-5-carboxamide] registered an IC50 of 1 nM.
As for `CN1[C@@H]2CC[C@H]1C[C@H](Oc1cc(Cl)sc1C(=O)N[C@@H]1CCCN(c3cc(-c4ccc(-n5cccn5)cc4)n4ncnc(N)c34)C1)C2` [Example 837, N-((R)-1-(7-(4-(1H-pyrazol-1-yl)phenyl)-4-aminopyrrolo[2,1-f][1,2,4]triazin-5-yl)piperidin-3-yl)-5-chloro-3-(((1R,3s,5S)-8-methyl-8-azabicyclo[3.2.1]octan-3-yl)oxy)thiophene-2-carboxamide], the figure is 4 nM; as for `CNC(=O)c1ccc(-c2cc(N3CCC[C@@H](NC(=O)c4sc(C)nc4O[C@H]4CC[C@@H](N(C)C)CC4)C3)c3c(N)ncnn23)nc1OC` [Example 1058, N—((R)-1-(4-amino-7-(6-methoxy-5-(methylcarbamoyl)pyridin-2-yl)pyrrolo[2,1-f][1,2,4]triazin-5-yl)piperidin-3-yl)-4-(((1S,4S)-4-(dimethylamino)cyclohexyl)oxy)-2-methylthiazole-5-carboxamide], 1.1 nM; as for `CC(C)c1nc(O[C@@H]2C[C@H]3CC[C@@H](C2)N3C)c(C(=O)N[C@@H]2CCCN(c3cc(-c4ccc(=O)n(CC(F)F)c4)n4ncnc(N)c34)C2)s1` [Example 951, N—((R)-1-(4-Amino-7-(1-(2,2-difluoroethyl)-6-oxo-1,6-dihydropyridin-3-yl)pyrrolo[2,1-f][1,2,4]triazin-5-yl)piperidin-3-yl)-2-isopropyl-4-(((1R,3s,5S)-8-methyl-8-azabicyclo[3.2.1]octan-3-yl)oxy)thiazole-5-carboxamide], 3 nM.
As to `CN(C)CC(=O)N1CC2CCC1CC2Oc1cc(Cl)sc1C(=O)N[C@@H]1CCCN(c2cc(-c3ccc(-n4cnnn4)nc3)n3ncnc(N)c23)C1` (stereo partly shown) [Example 990], half-maximal inhibition (IC50) was put at 1 nM.
The same measure for `Cc1nc(O[C@H]2CC[C@@H](N(C)C)CC2)c(C(=O)N[C@@H]2CCCN(c3cc(-c4ccc(C(N)=O)c(F)c4)n4ncnc(N)c34)C2)s1` [Example 937, N—((R)-1-(4-Amino-7-(4-carbamoyl-3-fluorophenyl)pyrrolo[2,1-f][1,2,4]triazin-5-yl)piperidin-3-yl)-4-(((1s,4S)-4-(dimethylamino)cyclohexyl)oxy)-2-methylthiazole-5-carboxamide]: 1 nM.
As for `CC(=O)N1CC=C(c2cc(N3CCC[C@@H](NC(=O)c4sc(C#N)cc4O[C@@H]4C[C@H]5CC[C@@H](C4)N5C)C3)c3c(N)ncnn23)C1` [Example 753], the figure is 12 nM; as for `Cc1nc(O[C@H]2CC[C@]3(CCCN3C)CC2)c(C(=O)N[C@@H]2CCCN(c3cc(-c4ccc(C(N)=O)c(F)c4)n4ncnc(N)c34)C2)s1` [Example 931, N—((R)-1-(4-amino-7-(4-carbamoyl-3-fluorophenyl)pyrrolo[2,1-f][1,2,4]triazin-5-yl)piperidin-3-yl)-2-methyl-4-(((5S,8r)-1-methyl-1-azaspiro[4.5]decan-8-yl)oxy)thiazole-5-carboxamide, TFA salt], 0.5 nM.
The same measure for `CC(=O)c1ccc(-c2cc(N3CCC[C@@H](NC(=O)c4ccnc(N5CCN(C)CC5)n4)C3)c3c(N)ncnn23)cn1` [Example 851, (R)-N-(1-(7-(6-acetylpyridin-3-yl)-4-aminopyrrolo[2,1-f][1,2,4]triazin-5-yl)piperidin-3-yl)-2-(4-methylpiperazin-1-yl)pyrimidine-4-carboxamide]: 18 nM.
Turning to `CCC1=C(c2cc(N3CCC[C@@H](NC(=O)c4sc(C)nc4O[C@H]4CC[C@@H](N(C)C)CC4)C3)c3c(N)ncnn23)COC1=O` [Example 1018, N—((R)-1-(4-amino-7-(4-ethyl-5-oxo-2,5-dihydrofuran-3-yl)pyrrolo[2,1-f][1,2,4]triazin-5-yl)piperidin-3-yl)-4-(((1S,4S)-4-(dimethylamino)cyclohexyl)oxy)-2-methylthiazole-5-carboxamide], the midpoint of inhibition, the IC50, lay at 0.8 nM.
Regarding `[2H]C([2H])([2H])c1nc(O[C@H]2CC[C@@H](N(C)C)CC2)c(C(=O)N[C@@H]2CCCN(c3cc(C4=C(C)C(=O)OC4)n4ncnc(N)c34)C2)s1` [Example 1016, N—((R)-1-(4-amino-7-(4-methyl-5-oxo-2,5-dihydrofuran-3-yl)pyrrolo[2,1-f][1,2,4]triazin-5-yl)piperidin-3-yl)-4-(((1S,4S)-4-(dimethylamino)cyclohexyl)oxy)-2-(methyl-d3)thiazole-5-carboxamide], it took 1 nM to reach half-maximal inhibition (IC50).
Compound `CN1[C@@H]2CC[C@H]1C[C@H](Oc1cc(Cl)sc1C(=O)N[C@@H]1CCCN(c3cc(-c4ccnn4C)n4ncnc(N)c34)C1)C2` [Example 975, N—((R)-1-(4-amino-7-(1-methyl-1H-pyrazol-5-yl)pyrrolo[2,1-f][1,2,4]triazin-5-yl)piperidin-3-yl)-5-chloro-3-(((1R,3s,5S)-8-methyl-8-azabicyclo[3.2.1]octan-3-yl)oxy)thiophene-2-carboxamide] had an IC50 of 7 nM.

(Values after patent publication US20260250290A1 (BRISTOL-MYERS SQUIBB COMPANY, priority 2023, published 2026).)
